According to patent US20260048046A1, “METHOD FOR IMPROVING GROWTH PERFORMANCE IN FEEDLOT CATTLE” (Elanco US Inc., priority 2022, published 2026):

Columns and labels:
beef steers [1] = experiment: Lubabegron removal period study: carcass measures; type: in vivo, cattle; details: for Calculated YG / Ribeye Area / HCW / Marbling / Dressing: Lubabegron 3.5 mg/kg DM fed 56 d; for HCW: steers; for Marbling: 500 = Small; for Dressing: final liveweight with 4% shrink
Experimental: This experiment was conducted to evaluate the effect of removing lubabegron from feed for increasing intervals prior to slaughter on growth performance of steers.
(§1) Seven hundred English x Continental cross steers (initial BW=531±8.8 kg) were used in a randomized complete block design with seven treatments. Pen served as the experimental unit. […] Animals were managed as two-time replications with each replication containing five blocks (7 pens/block and 10 steers/pen). All ten blocks started and ended within 48 hours of each other. Cattle were weighed by pen using a 45,000-kg capacity pen scale (Model WI-130, Avery Weigh-Tronix LLC, Fairmont, MN; 3.66 m×21.34 m). All treatments were on feed for 71 d with harvest scheduled for 72 d. Because of an impending weather event, cattle were weighed to obtain a final BW one d early. Cattle were placed on their respective ration for the additional d and then shipped to the harvest facility the following morning.
(§2) 657 head were transported to a harvest facility approximately 495 km from the research facility. Animals were scored for animal mobility using the North American Meat Institute (NAMI, 2015) scoring scale described by Edwards-Callaway et al., (2017) while in lairage. […] Experienced staff collected an ear tag number, plant identification (ID), and carcass sequence and applied a unique carcass ID. Data collected on the kill floor included HCW, instances of excessive trim (>approximately 9 kg), and prevalence of liver abscess (Brown et al., 1975). Other carcass measures were obtained via instrument grading.
(§3) Continuous variables were analyzed using the Mixed procedure of SAS (version 9.4; SAS Institute, Cary, NC). Block served as a random effect whereas treatment was fixed. Initial body weight was used to describe the uniformity of cattle randomized to treatment and used as a covariate when appropriate. Data were calculated with deads and removals excluded. Linear and quadratic effects of lubabegron removal were conducted as were individual comparisons for duration of removal (i.e., 0 vs 2 d; 0 vs 4 d, 0 vs 6 d; 0 vs 8 d and 0 vs 16 d). Fisher's Exact test was evaluated on mobility scores 1 and 2. No test was conducted on mobility scores of 3 or 4 because no scores were reported. Simple means and standard deviation of the tissues collected for the 5 animals were calculated.

beef steers [2] = experiment: Lubabegron removal period study: animal mobility at harvest; type: in vivo, cattle; details: for Mobility Score 1, number of animals / Mobility Score 2, number of animals / Mobility Score 3, number of animals / Mobility Score 4, number of animals: Lubabegron 3.5 mg/kg, in lairage at harvest
Experimental: as §1, §2, §3

CC(C)(Cc1ccc(Oc2ncccc2C#N)cc1)NC[C@H](O)COc1ccccc1-c1cccs1 [LUB, 2-{4-[2-({(2S)-2-Hydroxy-3-[2-(2-thienyl)phenoxy]propyl}amino)-2-methylpropyl]phenoxy}nicotinonitrile]
Calculated YG (beef steers [1]; removal duration 0 d): 3.08
Ribeye Area (beef steers [1]; removal duration 0 d): 91.0 cm^2
HCW (beef steers [1]; removal duration 0 d): 409 kg
Marbling (beef steers [1]; removal duration 0 d): 482
Dressing (beef steers [1]; removal duration 0 d): 62.7%
Calculated YG (beef steers [1]; removal duration 2 d): 3.20
Ribeye Area (beef steers [1]; removal duration 2 d): 90.3 cm^2
HCW (beef steers [1]; removal duration 2 d): 411 kg
Marbling (beef steers [1]; removal duration 2 d): 491
Dressing (beef steers [1]; removal duration 2 d): 62.7%
Calculated YG (beef steers [1]; removal duration 4 d): 3.21
Ribeye Area (beef steers [1]; removal duration 4 d): 90.3 cm^2
HCW (beef steers [1]; removal duration 4 d): 413 kg
Marbling (beef steers [1]; removal duration 4 d): 488
Dressing (beef steers [1]; removal duration 4 d): 62.8%
Calculated YG (beef steers [1]; removal duration 6 d): 3.06
Ribeye Area (beef steers [1]; removal duration 6 d): 91.6 cm^2
HCW (beef steers [1]; removal duration 6 d): 410 kg
Marbling (beef steers [1]; removal duration 6 d): 483
Dressing (beef steers [1]; removal duration 6 d): 62.9%
Calculated YG (beef steers [1]; removal duration 8 d): 3.14
Ribeye Area (beef steers [1]; removal duration 8 d): 90.3 cm^2
HCW (beef steers [1]; removal duration 8 d): 413 kg
Marbling (beef steers [1]; removal duration 8 d): 483
Dressing (beef steers [1]; removal duration 8 d): 63.0%
Calculated YG (beef steers [1]; removal duration 16 d): 3.18
Ribeye Area (beef steers [1]; removal duration 16 d): 89.0 cm^2
Marbling (beef steers [1]; removal duration 16 d): 484
Dressing (beef steers [1]; removal duration 16 d): 62.6%
Effect of removal duration on any measured carcass parameter (beef steers [1]; lubabegron 3.5 mg/kg DM, removal 0 to 16 d, P>0.05): no effect
Calculated yield grade improvement vs non-treated group (beef steers [1]; lubabegron fed for 56 d with a 0 d removal): 10.5%
Effects on BW and HCW of duration of lubabegron removal (beef steers [1]; removal up to 16 d): not affected
Animal mobility when lubabegron was fed (beef steers [2]; 3.5 mg/kg DM vs non-treated, P<0.25): No differences
Mobility Score 1, number of animals (beef steers [2]; removal duration 0 d): 92 n
Mobility Score 2, number of animals (beef steers [2]; removal duration 0 d): 3 n
Mobility Score 3, number of animals (beef steers [2]; removal duration 0 d): 0 n
Mobility Score 4, number of animals (beef steers [2]; removal duration 0 d): 0 n
Mobility Score 1, number of animals (beef steers [2]; removal duration 2 d): 95 n
Mobility Score 2, number of animals (beef steers [2]; removal duration 2 d): 0 n
Mobility Score 3, number of animals (beef steers [2]; removal duration 2 d): 0 n
Mobility Score 4, number of animals (beef steers [2]; removal duration 2 d): 0 n
Mobility Score 1, number of animals (beef steers [2]; removal duration 4 d): 91 n
Mobility Score 2, number of animals (beef steers [2]; removal duration 4 d): 2 n
Mobility Score 3, number of animals (beef steers [2]; removal duration 4 d): 0 n
Mobility Score 4, number of animals (beef steers [2]; removal duration 4 d): 0 n
Mobility Score 1, number of animals (beef steers [2]; removal duration 6 d): 89 n
Mobility Score 2, number of animals (beef steers [2]; removal duration 6 d): 4 n
Mobility Score 3, number of animals (beef steers [2]; removal duration 6 d): 0 n
Mobility Score 4, number of animals (beef steers [2]; removal duration 6 d): 0 n
Mobility Score 1, number of animals (beef steers [2]; removal duration 8 d): 87 n
Mobility Score 2, number of animals (beef steers [2]; removal duration 8 d): 4 n
Mobility Score 3, number of animals (beef steers [2]; removal duration 8 d): 0 n
Mobility Score 4, number of animals (beef steers [2]; removal duration 8 d): 0 n
Mobility Score 1, number of animals (beef steers [2]; removal duration 16 d): 90 n
Mobility Score 2, number of animals (beef steers [2]; removal duration 16 d): 5 n
Mobility Score 3, number of animals (beef steers [2]; removal duration 16 d): 0 n
Mobility Score 4, number of animals (beef steers [2]; removal duration 16 d): 0 n
Animal mobility with increased duration of removal (beef steers [2]; lubabegron 3.5 mg/kg DM, removal 0 to 16 d, P<0.06): tended (P<0.06) to be reduced
